# Patent publication US7183299B2 (priority 2001, dated 2007)
# Key:
# [1] = test system: downy mildew (Plasmopara viticola) on grape; settings: in vivo
# [2] = test system: late blight on tomato; type: in vivo, Plasmopara viticola; settings: tomato (Hofuku), therapeutic effect, sprayed after inoculation, active ingredient 100 ppm, disease severity 7 days after inoculation
Compound,Control value (%) [1] [%],Control value (%) [2] [%]
CC(=O)Nc1cccc(CON=C(c2ccccc2)n2nnnc2C)n1 [(11)-4],70,80
CCC(=O)Nc1cccc(CON=C(c2ccccc2)n2nnnc2C)n1 [(11)-5],70,80
CCCC(=O)Nc1cccc(CON=C(c2ccccc2)n2nnnc2C)n1 [(11)-6],70,80
Cc1nnnn1C(=NOCc1cccc(NC(=O)C(C)C)n1)c1ccccc1 [(11)-7],100,100
CCCCC(=O)Nc1cccc(CON=C(c2ccccc2)n2nnnc2C)n1 [(11)-8],100,100
Cc1nnnn1C(=NOCc1cccc(NC(=O)C(C)(C)C)n1)c1ccccc1 [(11)-11],70,80
"CCCCCC(=O)Nc1cccc(CON=C(c2ccccc2)n2nnnc2C)n1 [(11)-12, (Z)-(5-methyltetrazol-1-yl)phenylmethanoneoxime 0-(6-(hexanoylamino)pyridin-2-yl)methyloxime]",100,100
Cc1nnnn1C(=NOCc1cccc(NC(=O)C2CC2)n1)c1ccccc1 [(11)-21],70,90
CCCC(=O)Nc1nc(CON=C(c2ccccc2)n2nnnc2C)cs1 [(12)-6],80,100
Cc1nnnn1C(=NOCc1csc(NC(=O)C(C)C)n1)c1ccccc1 [(12)-7],90,100
"CCCCCC(=O)Nc1nc(CON=C(c2ccccc2)n2nnnc2C)cs1 [(12)-12, (Z)-(5-methyltetrazol-1-yl)phenylmethanoneoxime 0-(2-(n-hexanoylamino)thiazol-4-yl)methyloxime]",90,100
CCCCCCC(=O)Nc1nc(CON=C(c2ccccc2)n2nnnc2C)cs1 [(12)-18],90,100
CCCCOC(=O)Nc1cccc(CON=C(c2ccccc2)n2nnnc2C)n1 [(13)-5],70,90
Cc1nnnn1C(=NOCc1cccc(NC(=O)OC(C)(C)C)n1)c1ccccc1 [(13)-8],90,100
CCCCCOC(=O)Nc1cccc(CON=C(c2ccccc2)n2nnnc2C)n1 [(13)-9],100,100
CCCCCCOC(=O)Nc1cccc(CON=C(c2ccccc2)n2nnnc2C)n1 [(13)-15],80,90
Cc1nnnn1C(=NOCc1cccc(NC(=O)OC2CCCC2)n1)c1ccccc1 [(13)-21],80,100
Cc1nnnn1C(=NOCc1cccc(NC(=O)OC2CCCCC2)n1)c1ccccc1 [(13)-22],100,100
CCCCOC(=O)Nc1nc(CON=C(c2ccccc2)n2nnnc2C)cs1 [(14)-5],70,80

Compound,Control value (%) [1] [%],Control value (%) [2] [%]
Cc1nnnn1C(=NOCc1csc(NC(=O)c2ccccc2)n1)c1ccccc1 [(16)-3],70,80
CCCC(=O)Nc1cccc(CON=C(c2ccc(Cl)cc2)n2nnnc2C)n1 [(17)-1],100,100
CCCC(=O)Nc1nc(CON=C(c2ccc(Cl)cc2)n2nnnc2C)cs1 [(18)-1],100,100
Cc1nnnn1C(=NOCc1cccc(NC(=O)OC(C)(C)C)n1)c1cccc(F)c1 [(19)-1],100,100
CCCCOC(=O)Nc1cccc(CON=C(c2cccc(F)c2)n2nnnc2C)n1 [(19)-11],80,90
CCCCOC(=O)Nc1cccc(CON=C(c2ccc(F)cc2)n2nnnc2C)n1 [(19)-12],90,100
CCCCOC(=O)Nc1cccc(CON=C(c2cccc(Cl)c2)n2nnnc2C)n1 [(19)-13],100,100
CCCCOC(=O)Nc1cccc(CON=C(c2ccc(Cl)cc2)n2nnnc2C)n1 [(19)-14],80,100
CCCCOC(=O)Nc1cccc(CON=C(c2ccc(C)cc2)n2nnnc2C)n1 [(19)-16],100,100
CCCCOC(=O)Nc1cccc(CON=C(c2ccc(OC)cc2)n2nnnc2C)n1 [(19)-23],70,80
CCCCOC(=O)Nc1cccc(CON=C(c2ccc(C#N)cc2)n2nnnc2C)n1 [(19)-25],90,90
CCCCCOC(=O)Nc1cccc(CON=C(c2ccc(S(C)(=O)=O)cc2)n2nnnc2C)n1 [(19)-28],100,100
CCCCOC(=O)Nc1cccc(CON=C(c2ccc([N+](=O)[O-])cc2)n2nnnc2C)n1 [(19)-29],80,100
CCCCOC(=O)Nc1cccc(CON=C(c2ccc(C(F)(F)F)cc2)n2nnnc2C)n1 [(19)-31],90,100
CCCCOC(=O)Nc1cccc(CON=C(c2ccccc2)n2nnnc2C)n1 [(19)-33],100,100
CCCCOC(=O)Nc1cccc(CON=C(c2ccc(CC)cc2)n2nnnc2C)n1 [(19)-34],80,100
CCCCOC(=O)Nc1cccc(CON=C(c2ccc(C(C)(C)C)cc2)n2nnnc2C)n1 [(19)-35],70,80
Cc1nnnn1C(=NOCc1csc(NC(=O)OC(C)(C)C)n1)c1cccc(F)c1 [(20)-1],70,80
(Z)-(1-methyltetrazol-5-yl)phenylmethanoneoxime 0-(2-(n-pentyloxycarbonylamino)thiazol-4-yl)methyloxime [(4)-9],80,100
